{"source": "patent US20230212571A1", "about": "“COMPOSITIONS AND METHODS FOR DELIVERING POLYNUCLEOTIDES” (NeOnc Technologies, Inc., priority 2020, published 2023)", "key": {"AVM-BEC [1]": {"tested_on": "AVM-BEC", "type": "cell-based", "description": "The apoptotic and necrotic cell death was measured by flow cytometry using PI/Annexin V-Alexa Fluor 488 (ThermoFisher Scientific), following the manufacturer's instructions. After 24 h-treatments, cells were harvested, washed with cold PBS, and suspended in Annexin Binding Buffer (ThermoFisher Scientific) at a concentration of 1×10^6 cells/mL. Following addition of Annexin V and PI, cells were incubated at room temperature for 15 min in the ? dark, and additional 400 μL of 1× binding buffer was added to each sample. Positive controls of cell death were obtained treating cells with 50% ethanol. Ten thousand cells/sample were analyzed using a BD LSRII flow cytometer with the proper compensation controls and the FlowJo_V10 analysis software.\nCells were collected and analyzed for apoptosis, while supernatants were collected and analyzed for necrosis (Cell Death Detection ELISA^PLUS), and for PAI-1, VEGF (Quantikine ELISA Kit, R&D Systems) and TGF-β (Proteintech) protein content, following the manufacturers' instructions. Absorbance was measured using a Fluostar Omega microplate reader (BMG Labtech). Data were normalized to kit controls and number of producing cells."}, "BMP4 3′UTR": {"tested_on": "BMP4 3′UTR", "assay": "BMP4 3′UTR luciferase reporter in ECs", "type": "cell-based, human", "settings": "vs untreated or scramble microRNA, n=6", "description": "Plasmid constructs pcDNA3-ALK2^WT (Addgene #80870) and pcDNA3-ALK2^Q207D (Addgene #80871) were a gift from Aristidis Moustakas^7. (Meyer B, Schaller C, Frenkel C, Ebeling B, Schramm J. Distributions of local oxygen saturation and its response to changes of mean arterial blood pressure in the cerebral cortex adjacent to arteriovenous malformations. Stroke. 1999; 30(12):2623-2630) 10^4 AVM-BEC were seeded 24 h before transfection. The plasmid vector containing the 3′ untranslated region (3′UTR) of human BMP4, pRP [Exp]-Puro-CMV>Luciferase:{hBMP4_3′UTR}, was constructed and packaged by VectorBuilder. The vector ID is VB200205-1078zdv, which can be used to retrieve detailed information about the vector on vectorbuilder.com. Transient transfections were performed with Lipofectamine RNAiMax (Thermo Fisher Scientific) according to the manufacturer's instructions. After 4 h, medium was replaced by fresh medium containing microRNA.\nFor the experiments regarding the direct binding of miR-18a to BMP4 (information about the plasmid was included in Methods), the luciferase activity of the hBMP4 3′UTR was read in a Varioskan™ LUX multimode microplate reader (Thermo Fisher Scientific)."}, "AVM-BEC [2]": {"tested_on": "AVM-BEC", "assay": "Biotinylated miR-18a uptake analysis in AVM-BEC", "type": "cell-based, human", "settings": "biotinylated probes, 30 min at 37° C., no transfection reagent, Ago-2 0.4 nM when indicated", "description": "Biotinylated hsa-miR-18a-5p sense and hsa-miR-18a-3p sense probes were acquired from Integrated DNA Technologies (IDT) and reconstituted in RNAse-free water. A scramble sequence of the miR-18a was designed using GenScript®, and the biotinylated probe using this sequence was also acquired from IDT and reconstituted in RNAse-free water. […] Then, media was replaced by fresh media containing the corresponding probes without Lipofectamine, and AVM-BEC were incubated for 30 min at 37° C. in shear flow conditions. When indicated, Ago-2 (0.4 nM, Abcam) was co-administered with the probes as the microRNA carrier and stabilizer^1. Cells were then washed with PBS and fixed with 4% paraformaldehyde (PFA). Avidin/Biotin blocking kit (Vector Laboratories) was used to block unspecific bindings, and cells were incubated with Alexa Fluor 488 streptavidin (1:200, Thermo Fisher Scientific) for 1 h at room temperature to detect the tagged microRNAs. DAPI (Thermo Fisher Scientific) was used to detect cell nuclei. Cells were mounted with Dako Fluorescence Mounting Medium. Pictures were taken in a Zeiss LSM 510 confocal microscope (Carl Zeiss Inc.)."}, "AVM-BEC [3]": {"tested_on": "AVM-BEC", "assay": "Human Notch Signaling Pathway PCR array in AVM-BEC", "type": "cell-based", "description": "MiR-18a (hsa-miR-18a-5p, 40 nM, Dharmacon) or a scramble microRNA (40 nM, Dharmacon) in nuclease-free water was added with argonaute 2 (Ago-2, 0.4 nM, Abcam) as the microRNA carrier and stabilizer^9. (Ferreira R, Santos T, Amar A, et al. Argonaute-2 promotes miR-18a entry in human brain endothelial cells. J Am Heart Assoc. 2014; 3(3):e000968). No transfection reagent was used with miR-18a or scramble microRNA treatments. Recombinant human TSP-1 (R&D Systems) stock solution was prepared in PBS and further diluted in culture medium to be used at a final concentration of 1000 ng/mL. Cells were treated during 24 h for mRNA and 48 h for protein expression studies. NEO100 (NeOnc Technologies) stock was prepared in DMSO and used immediately or stored at −20° C.\nThe extraction and analysis of total mRNA and microRNAs were described^9,13. (Ferreira R, Santos T, Amar A, et al. Argonaute-2 promotes miR-18a entry in human brain endothelial cells. J Am Heart Assoc. 2014; 3(3):e000968) (Marín-Ramos N I, Jhaveri N, Thein T Z, Fayngor R A, Chen T C, Hofman F M. NEO212, a conjugate of temozolomide and perillyl alcohol, blocks the endothelial-to-mesenchymal transition in tumor-associated brain endothelial cells in glioblastoma. Cancer Lett. 2018; 442:170-180). The Human Notch Signaling Pathway RT^2 Profiler PCR Array (Qiagen) was used to analyze the expression of 84 genes related to Notch signaling. For mRNA studies, […] (B2M) was measured for sample normalization. The primer sequences were included in Table 2. For microRNA analysis, RNU44 and U6 snRNA TaqMan microRNA Control Assays were used for normalization of human and mice samples, respectively."}}, "data": [{"substance": "hsa-miR-18a-5p (UAGGUGCAUCUAGUGCAGAUAG; chemistry not given here; listed as Homo sapiens) [small non-coding RNA molecule involved in post-transcriptional regulation of gene expression; Dharmacon]", "values": [{"measurement": "cell death (apoptosis, necrosis)", "setting": "AVM-BEC [1]", "value": "does not increase cell death"}, {"measurement": "BMP4-3′-UTR-Luc activity", "setting": "BMP4 3′UTR", "value": "significantly (P<0.001) decreased"}, {"measurement": "uptake: levels of miR-18a detected inside the AVM-BEC and their nuclei", "setting": "AVM-BEC [2]", "value": "enough to obtain AVM-BEC uptake"}, {"measurement": "ADAM10 mRNA expression", "setting": "AVM-BEC [3]; FIG. 13", "value": "downregulated"}, {"measurement": "Notch-related genes downregulated", "setting": "AVM-BEC [3]; among the affected genes", "value": 50, "unit": "genes"}, {"measurement": "Notch-related genes affected (fold change>2)", "setting": "AVM-BEC [3]; of 84 Notch-related genes", "value": 68, "unit": "genes"}]}]}
